Source: patent US20200268702A1, “METHODS OF TREATING […]” (Amarin Pharmaceuticals Ireland Limited, priority 2013, published 2020)

Tested on: patients with fasting triglyceride levels ≥200 mg/dl and <500 mg/dl despite statin therapy
Assay: ANCHOR study: 12-week placebo-controlled study of >96% E-EPA on statin therapy, metabolic syndrome subgroup
Assay type: in vivo, human
Procedure: A multi-center, placebo-controlled, randomized, double-blind, 12-week study was performed to evaluate the efficacy and safety of >96% E-EPA in patients with fasting triglyceride levels ≥200 mg/dl and <500 mg/dl despite statin therapy (the mean of two qualifying entry values needed to be ≥185 mg/dl and at least one of the values needed to be ≥200 mg/dl). The primary objective of the study was to determine the efficacy of >96% E-EPA 2 g daily and 4 g daily, compared to placebo, in lowering fasting TG levels in patients with high risk for cardiovascular disease and with fasting TG levels ≥200 mg/dL and <500 mg/dL, despite treatment to LDL-C goal on statin therapy.
The population for this study was men and women >18 years of age with a body mass index ≤45 kg/m^2 with fasting TG levels greater than or equal to 200 mg/dl and less than 500 mg/dl and on a stable does of statin therapy (with or without ezetimibe). The statin was atorvostatin, rosuvastatin or simvastatin. The dose of statin must have been stable for ≥4 weeks prior to the LDL-C/TG baseline qualifying measurement for randomization. The statin dose was optimized such that the patients are at their LDL-C goal at the LDL-C/TG baseline qualifying measurements. The same statin at the same dose was continued until the study ended.
Approximately 702 patients were randomized at approximately 80 centers in the U.S. The study was a 18- to 20-week, Phase 3, multi-center study consisting of 2 study periods: (1) A 6- to 8-week screening period that included a diet and lifestyle stabilization, a non-statin lipid-altering treatment washout, and an LDL-C and TG qualifying period and (2) A 12-week, double-blind, randomized, placebo-controlled treatment period.
After confirmation of qualifying fasting LDL-C and TG values, eligible patients entered a 12-week, randomized, double-blind treatment period. At Visit 4 (Week 0), patients were randomly assigned to 1 of the following treatment groups: • >96% E-EPA 2 g daily, • >96% E-EPA 4 g daily, or • Placebo.
>96% E-EPA was provided in 1 g liquid-filled, oblong, gelatin capsules. The matching placebo capsule was filled with light liquid paraffin and contained 0 g of >96% E-EPA. >96% E-EPA capsules were to be taken with food (i.e. with or at the end of a meal).
During the double-blind treatment period, patients were to take 2 capsules (>96% E-EPA or matching placebo) in the morning and 2 capsules in the evening for a total of 4 capsules per day. • Patients in the >96% E-EPA 2 g/day treatment group received 1>96% E-EPA 1 g capsule and 1 matching placebo capsule in the morning and in the evening. • Patients in the >96% E-EPA 4 g/day treatment group received 2>96% E-EPA 1 g capsules in the morning and evening.
The primary efficacy variable for the double-blind treatment period was percent change in TG from baseline to Week 12 endpoint. […]

[1] = 4 g/day, week 12, listed as IPE

## CC/C=C\C/C=C\C/C=C\C/C=C\C/C=C\CCCC(=O)OCC [AMR101, ethyl eicosapentaenoate]
2 g/day, week 12
  Apo B, Change from Baseline, %: 3.3%
  Apo B, End of Treatment, median (IQR): 95.0 (23.00) mg/dL
  Apo B, Median % Change From Baseline vs Placebo: −2.6%
  HDL-C, Change from Baseline, %: 2.2%
  HDL-C, End of Treatment, median (IQR): 38.0 (12.00) mg/dL
  HDL-C, Median % Change From Baseline vs Placebo: −1.4%
  LDL-C, Change from Baseline, %: 2.5%
  LDL-C, End of Treatment, median (IQR): 87.0 (28.00) mg/dL
  LDL-C, Median % Change From Baseline vs Placebo: −2.4%
  Non-HDL-C, Change from Baseline, %: 2.7%
  Non-HDL-C, End of Treatment, median (IQR): 134.0 (44.00) mg/dL
  Non-HDL-C, Median % Change From Baseline vs Placebo: −4.4%
  TG, Change from Baseline, %: −5.8%
  TG, End of Treatment, median (IQR): 246.0 (117.00) mg/dL
  TG, Median % Change From Baseline vs Placebo: −10.3%
  hsCRP, Change from Baseline, %: 8.4%
  hsCRP, End of Treatment, median (IQR): 2.5 (3.35) mg/L
  hsCRP, Median % Change From Baseline vs Placebo: −7.6%
4 g/day, week 12
  Apo B, Change from Baseline, %: −2.2%
  Apo B, End of Treatment, median (IQR): 89.0 (26.00) mg/dL
  HDL-C, Change from Baseline, %: 0.0%
  HDL-C, End of Treatment, median (IQR): 36.0 (12.00) mg/dL
  HDL-C, Median % Change From Baseline vs Placebo: −4.0%
  LDL-C, Change from Baseline, %: 2.1%
  LDL-C, End of Treatment, median (IQR): 83.0 (31.00) mg/dL
  Non-HDL-C, Change from Baseline, %: −5.3%
  Non-HDL-C, End of Treatment, median (IQR): 121.0 (37.00) mg/dL
  TG, Change from Baseline, %: −17.4%
  TG, End of Treatment, median (IQR): 221.0 (93.50) mg/dL
  hsCRP, Change from Baseline, %: −3.4%
  hsCRP, End of Treatment, median (IQR): 2.0 (3.00) mg/L
[1]
  Apo B, Median % Change From Baseline vs Placebo: −8.8%
  LDL-C, Median % Change From Baseline vs Placebo: −5.2%
  Non-HDL-C, Median % Change From Baseline vs Placebo: −13.5%
  TG, Median % Change From Baseline vs Placebo: −21.7%
  hsCRP, Median % Change From Baseline vs Placebo: −23.0%
